Experimental data reported in PMC12644462, “A novel radiosensitizer α-sulfoquinovosyl-acylpropanediol (SQAP) inhibits DNA repair pathways and sensitize cells to cancer chemotherapeutic agents” (Scientific Reports, 2025).

Assays:
CHO cells [1] = assay: Chromosome aberration assay; format: cell-based, Chinese hamster; conditions: G1-irradiated CHO cells, 4 Gy, with SQAP
Protocol: Two hours after mitotic shake-off and replating, CHO cells in the G1 phase were irradiated. After 10 h, colcemid was added for 6 h to collect metaphase cells. Chromosome spreads were prepared as sister chromatid exchange assay and stained with a 5% Giemsa stain. At least 50 metaphase spreads were scored in three independent experiments.

[2] = test system: histone deacetylase 1 (HDAC1); set-up: method as in PMID 33577659; conditions: cited from earlier work
[3] = in vivo ref 34; cited from earlier work
[4] = test system: Chinese hamster V79 cells; assay: Colony formation assay, radio- and chemosensitization; format: cell-based; conditions: V79, gamma-rays, normoxic condition
[5] = test system: poly (ADP-ribose) glycohydrolase (PARG); set-up: method as in PMID 37973295; conditions: cited from earlier work
[6] = test system: dogs and cats with cancer; conditions: dogs and cats with cancer receiving radiation therapy ref 8, 9; cited from earlier work
[7] = test system: CHO wild type, EM9, xrs5 and 51D1 cells; assay: Sister chromatid exchange assay; format: cell-based, Chinese hamster
Protocol: CHO cells were synchronized into G1 phase using mitotic shake-off method. Cells in the G1 phase were irradiated, and 10 µM of BrdU was added. After 20 h, colcemid was added for 6 h to arrest cells in metaphase. Collected cells were treated with hypotonic KCl solution and fixed using methanol: acetic acid (3:1) as the standard method. Metaphase chromosome spread was prepared on glass slides and treated with 5 µg/mL of Hoechst 33258 solution for 15 min and exposed to UVB for 15 min and treated with 2X SSC solution at 80 °C for 15 min. Cells were stained with 5% Giemsa stain solution. At least 50 metaphase spreads were analyzed for SCE scoring per experiment.

CHO cells [8] = assay: G2 premature chromosome condensation (PCC) assay; format: cell-based, Chinese hamster
Protocol: Following treatment with SQAP for 1 h, exponentially growing CHO cells were irradiated and treated with 50 nM of Calyculin A (Sigma-Aldrich) for 30 min as previously described. Cells were then fixed and stained as chromosome aberration analysis. Under a Zeiss Axioskop microscope, chromatid gaps, breaks, iso-breaks and exchanges were all scored as G2-PCC chromatid breaks. At least 50 PCC-spreads were scored in three independent experiments.

[9] = test system: Chinese hamster V79 cells; assay: Colony formation assay, radio- and chemosensitization; format: cell-based
Protocol: For hypoxia irradiation, cell cultures were placed in Aneropak Kenki system (Mitsubishi Gas Chemical, Tokyo, Japan) with oxygen meter to confirm pO2 below 0.1%. Cells were kept in hypoxia for 3 h before irradiation.

HDAC1 expression = test system: HDAC1 expression; set-up: method as in PMID 33577659; conditions: hypoxic conditions ref 11; cited from earlier work
[10] = test system: poly (ADP-ribose) polymerase (PARP); set-up: method as in PMID 37973295; conditions: cited from earlier work
[11] = test system: HR activity in HeLa DR-GFP cells; assay: DR-GFP DNA repair reporter assay; format: cell-based, human; conditions: 30 µM SQAP, p < 0.05
Protocol: (§1) HR and NHEJ activities were assessed using the DR-GFP reporter system[25] and the EJ5-GFP reporter system, respectively. pDRGFP and pCBASceI were gifts from Dr. Maria Jasin (Addgene plasmid #26475 and #26477). pimEJ5GFP was a gift from Dr. Jeremy Stark (Addgene plasmid # 44026). The assays were performed as previously described. Briefly, HeLa cells expressing DR-GFP, or EJ5-GFP were transfected with a plasmid encoding an I-SceI endonuclease using FuGENE HD transfection reagent (Promega, Madison, WI, USA). HR and NHEJ frequencies were analyzed by counting GFP positive cells with a FACS Lyric flow cytometer (BD Biosciences, San Jose, CA, USA) at 48 h post-transfection. Drug treatment was performed 3 h after transfection, and medium was replaced with the drug until FACS analysis. Relative HR and NHEJ efficiencies were calculated by normalizing to control cell values. A total of 50,000 cells were counted for each condition.

[12] = test system: NHEJ activity in HeLa EJ5-GFP cells; assay: EJ5-GFP DNA repair reporter assay; format: cell-based, human; conditions: 30 µM SQAP, p < 0.05
Protocol: as §1

For `CCCCCCCCCCCCCCCCCC(=O)OCCCO[C@H]1O[C@H](CS(=O)(=O)O)[C@@H](O)[C@H](O)[C@H]1O` [SQAP, Alpha-sulfoquinovosylacyl-1,3-propanediol], the chromosome-type aberrations (CHO cells [1]) is listed as “approximately 2.4”, the HDAC1 enzymatic inhibition [2] is listed as “does not inhibit” and the “clearance from normal tissues and persistence in tumors” value [3] is listed as “rapidly cleared from normal tissues but persists in tumors for several hours”. For the same molecule, the “sensitization enhancement ratio (SER)” value [4] was 1.3, the PARG inhibition [5] was “inhibitory effect” and the adverse systemic events [6] was “not detected”. For the same molecule, the “spontaneous sister chromatid exchange formation” value ([7]; 51D1 (rad51d mutant, HR deficient), non toxic SQAP concentrations) was “no reduction”, the “spontaneous sister chromatid exchange formation” value ([7]; CHO wild type, 5 to 20 µM SQAP, significant from 10 µM) was “reduced” and the “spontaneous sister chromatid exchange formation” value ([7]; EM9 (XRCC1 mutant), 5 to 20 µM SQAP, significant from 10 µM) was “reduced”. For the same molecule, the “spontaneous sister chromatid exchange formation” value ([7]; xrs5 (Ku80 mutant), 5 to 20 µM SQAP, significant from 10 µM) was “reduced”, the “residual PCC levels” value (CHO cells [8]; 1 Gy, after 2 h, with SQAP) was ~4.8 and the “number of G2-PCC chromatid breaks” value (CHO cells [8]; immediately after 1 Gy irradiation, SQAP-treated) was “approximately 10”. For the same molecule, the radiosensitization ([9]; V79, SQAP pretreatment alone) was “did not enhance radiation sensitivity”, the radiosensitization ([9]; V79, continuous SQAP treatment before and after irradiation, normoxic and hypoxic) was “Radiosensitization was observed” and the HDAC1 expression (HDAC1 expression) was “reduces”. The PARP inhibition [10] was “inhibitory effect”, the HR activity [11] was “significantly reduced” and the NHEJ activity [12] was “significantly reduced”.
